Assay [1] deals with IFNα-stimulated Kit225 T cells with STAT-dependent luciferase reporter. Kind of assay: Kit225 T cell assay, IFNα stimulated STAT-dependent luciferase reporter. It is filed as cell-based, human. Particulars: Homo sapiens, KIT225, read-out: IFNa Kit225 Reporter, LE (IC50, uM). Here is the method: (§1) Kit225 T cells with a stably-integrated STAT-dependent luciferase reporter were plated in RPMI (GIBCO) containing 10% heat-inactivated FBS (GIBCO) and 100 U/mL PenStrep (GIBCO). The cells were then stimulated with either 20 ng/mL human recombinant IL-23 or 200 U/mL human recombinant IFNα (PBL InterferonSource) for 5-6 hours. Luciferase expression was measured using the STEADY-GLO® Luciferase Assay System (PROMEGA®) according to the manufacturer's instructions.
Background: Reporter assays use an easily measured gene product as a stand-in for the process of interest.

The target of assay [2] is T1, recombinantly expressed His-tagged protein corresponding to amino acids 575-869 of human Tyk2 (Homo sapiens, UniProt P29597).
T1 construct: made in house
Kind of assay: Probe displacement assay (scintillation proximity, radiolabeled probe). Format: binding. Here is the method:
The probe displacement assay is conducted as follows: In a […], test compounds along with recombinantly expressed His-tagged protein corresponding to amino acids 575-869 of human Tyk2 (sequence shown below) at 2.5 nM, 40 nM ((R)—N-(1-(3-(8-methyl-5-(methylamino)-8H-imidazo[4,5-d]thiazolo[5,4-b]pyridin-2-yl)phenyl)ethyl)-2-([^3H]methylsulfonyl)benzamide) (preparation described below) and 80 μg/mL Copper His-Tag scintillation proximity assay beads (Perkin Elmer, Catalog #RPNQ0095) in 50 mM HEPES, pH 7.5, containing 100 μg/mL bovine serum albumin and 5% DMSO were incubated for 30 minutes at room temperature. […] The IC50 value is defined as the concentration of test compound required to inhibit radiolabeled probe binding by 50%.
Protein Sequence of recombinant Hig-tagged Tyk2 (575-869):
The preparation of radiolabeled probe, (R)—N-(1-(3-(8-methyl-5-(methylamino)-8H-imidazo[4,5-d]thiazolo[5,4-b]pyridin-2-yl)phenyl)ethyl)-2-([^3H]methylsulfonyl)benzamide, was performed as described below: […]
On the technique in general: In a scintillation proximity assay essentially only radioactivity close to the scintillant gives light.

In assay [3] the test system is IL-23-stimulated Kit225 T cells with STAT-dependent luciferase reporter. Description: Kit225 T cell assay, IL-23 stimulated STAT-dependent luciferase reporter. Format: cell-based, human. Particulars: Homo sapiens, KIT225, read-out: IL-23 Kit225 Reporter, LE (IC50, uM). As to the method: as §1

Eleven molecules from patent US10836770B2, “Imidazopyridazine compounds useful as modulators of IL-12, IL-23 and/or INF alpha responses” (priority 2016, dated 2020) can be followed below.

T1 sequence (P29597 with tags, fused parts or gaps): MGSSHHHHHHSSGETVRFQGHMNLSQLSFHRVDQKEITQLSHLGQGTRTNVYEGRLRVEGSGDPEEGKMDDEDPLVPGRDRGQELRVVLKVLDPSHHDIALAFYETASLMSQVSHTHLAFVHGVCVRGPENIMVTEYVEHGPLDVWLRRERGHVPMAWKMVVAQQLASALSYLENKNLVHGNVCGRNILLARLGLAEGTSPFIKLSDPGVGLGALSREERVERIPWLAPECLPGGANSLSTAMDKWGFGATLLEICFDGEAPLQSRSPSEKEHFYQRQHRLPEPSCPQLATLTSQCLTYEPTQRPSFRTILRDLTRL

As for `[2H]C([2H])([2H])NC(=O)c1sccc1Nc1cc(NC)c2ncc(C(=O)NCCO)n2n1` [Example 49], the IC50 in assay [1] was 0.26 µM; in assay [3], 0.27 µM. In addition, in assay [2], the concentration giving a half-maximal response (EC50) came out at 40 nM.
On the same counts, the results for `CNc1cc(Nc2cn(C)nc2C(=O)Nc2cccnc2)nn2c(C(=O)NC3CC3)cnc12` [Example 5] are 0.07 µM, 0.34 µM and 10 nM.
On the same counts, the results for `CNc1cc(Nc2scnc2C(=O)Nc2cccnc2)nn2c(C(=O)NC3CC3)cnc12` [Example 83] are 1.76 µM, 0.16 µM and 10 nM.
On the same counts, the results for `CNc1cc(Nc2cc(C(=O)Nc3ccccc3)n(C)n2)nn2c(C(=O)NC3CC3)cnc12` [Example 42] are 12.5 µM, 12.5 µM and 360 nM.
Turning to `CNc1cc(Nc2nn(C)cc2C(=O)Nc2ccccc2)nn2c(C(=O)NC3CC3)cnc12` [Example 36], the IC50 in assay [1] was found to be 11.9 µM; in assay [3] it was 3.33 µM. Moreover, the EC50 in assay [2] was found to be 130 nM.
For `CNc1cc(Nc2csnc2C(=O)Nc2ccccc2)nn2c(C(=O)NC3CC3)cnc12` [Example 60], the IC50 stood at 0.0662 µM in assay [1] and 0.211 µM in assay [3]. For the same molecule, in assay [2], the EC50 was determined as 2.69 nM.
On the same counts, the results for `CNc1cc(Nc2cn(C)nc2C(=O)Nc2ccc3c(c2)OCO3)nn2c(C(=O)NC3CC3)cnc12` [Example 13] are 0.21 µM, 0.33 µM and 7.77 nM.
`CNc1cc(Nc2cn(C)nc2C(=O)Nc2cccc(F)c2)nn2c(C(=O)NC3CC3)cnc12` [Example 21]: the IC50 is 0.5 µM in assay [1] and 0.24 µM in assay [3]. In addition, in assay [2], the EC50 amounted to 50 nM.
On the same counts, the results for `CNC(=O)c1nn(C)cc1Nc1cc(NC)c2ncc(C(=O)NC3CC3)n2n1` [Example 1, N-cyclopropyl-6-((1-methyl-3-(methylcarbamoyl)-1H-pyrazol-4-yl)amino)-8-(methylamino)imidazo[1,2-b]pyridazine-3-carboxamide] are 0.37 µM, 1.32 µM and 20 nM.
The corresponding values for `CNc1cc(Nc2cn(C)nc2C(=O)Nc2ccc3ncsc3c2)nn2c(C(=O)NC3CC3)cnc12` [Example 24] are 0.34 µM, 0.28 µM and 8.4 nM.
On the same counts, the results for `CNC(=O)c1cc(Nc2cc(NC)c3ncc(C(=O)NC4CC4)n3n2)n(C)n1` [Example 39, N-cyclopropyl-6-((1-methyl-3-(methylcarbamoyl)-1H-pyrazol-5-yl)amino)-8-(methylamino)imidazo[1,2-b]pyridazine-3-carboxamide] are 12.5 µM, 12.5 µM and 1270 nM.

Usually IC50 stands for the concentration needed to halve the response being measured. In general, EC50 refers to the concentration that produces a half-maximal response.
